Assay results published in patent US10717968B2, “Polymerases for nucleotide analogue incorporation” (Pacific Biosciences of California, Inc., priority 2005, dated 2020).

What was measured:
Assay type in all cases: biochemical
A568dC4P [1] = test: Nucleotide analogue concentration dependence of the polymerization rate, A568dC4P; details: for A568dC4P, kel / Km: circular AGTC template, dTTP, dATP, dGTP 20 μM each; for Km as % of the Km of N62D Φ29 for A568dC4P: relative to N62D Φ29, from Table 2
Method: (§1) The most promising polymerase mutants are characterized by determination of the polymerization rate and Km for A488dC4P and A568dC4P and a subset of natural nucleotides (dATP, dGTP and dTTP), using a circular template (AGTC). Velocity is measured at several different concentrations of the analogs, A488dC4P (a representative good substrate) and A568dC4P (a representative less preferred substrate).
(§2) The Φ29 DNA polymerase (parental enzyme or mutant) was preincubated with a DNA template (72 nucleotide circular DNA including mostly repetitive sequence AGTC) with annealed DNA primer. The preincubation mix includes also three native nucleotides (dTTP, dATP and dGTP 20 μM each) and various concentrations of the terminally labeled analogue (A488dC4P or A568dC4P). All subsequent steps were basically as described above in the section entitled “Assay with a single analogue at low concentration (10 μM) and three native nucleotides.” An average length of the DNA products generated with DNA polymerase at an individual analogue concentration was determined, and the results were fitted with the equation k=kel*[S]*(Kd+[S])^−1 where k is the observed polymerization rate, kel is the polymerization rate at saturating substrate concentration (kel measures incorporation of multiple residues), and [S] is substrate concentration. See, e.g., Table 2 Columns C, D, E, and F.

Alexa633-O-dC4P = test: Km and Vmax versus analogue Alexa633-O-dC4P; details: Alexa633-O-dC4P (A633dC4P)
Method: (§3) Km and Vmax were determined for exemplary recombinant Phi29 polymerases and various nucleotide analogues.

[2] = system: DNA template (72 nucleotide circular DNA) with annealed DNA primer; test: Processivity assay; details: dNTP, MnCl2, heparin trap, 20 min; 1.0 minus Poff
Text: The processivity (dissociation/kb) of the polymerase is estimated in a primer extension reaction performed in the presence of “Trap” (unlabeled competitor DNA or heparin). The processivity assay is designed to select mutants that retain the capability to synthesize a long DNA product in a continuous polymerization run (without polymerization reinitiation) with natural nucleotides. Mutants with a significant decrease in processivity are not selected for the next step.
The Φ29 DNA polymerase (parental enzyme or mutant) was preincubated with DNA template (72 nucleotide circular DNA including mostly repetitive sequence AGTC) with annealed DNA primer. After a short preincubation, the reaction was started with a starting mix including MnCl2, dNTP and heparin. Including the heparin in the reaction prevents polymerization from reinitiating after the polymerase dissociates from the template/primer, so that all generated DNA products are a result of continuous polymerization runs. After 20 min incubation, the reaction was stopped with EDTA and the products were separated using agarose gel electrophoresis and stained with SYBR Gold (Invitrogen). The DNA products were analyzed basically as described in Bibillo A, Eickbush T H. J Biol Chem. 2002 Sep. 20; 277(38):34836-45, Epub 2002 Jul. 5. The results were fitted with single exponential equation A*exp(−Poff*kb) where A is amplitude, Poff is the probability of premature polymerase dissociation, and kb is DNA length (1000 nucleotides). The probability of chain elongation (processivity) can be readily calculated by subtracting the Poff value from 1.0. See, e.g., Table 2 Column J.

dTTP, dATP, dGTP = test: Assay with three native nucleotides (dGTP, dTTP and dATP); details: three native nucleotides at 20 μM; circular template, no G residues
Method: (§4) The Φ29 DNA polymerase (parental enzyme or mutant) was preincubated with DNA template (72 nucleotide circular DNA including mostly repetitive sequence AGTC) with annealed DNA primer. The preincubation mix includes three native nucleotides (dTTP, dATP and dGTP) and a terminal labeled nucleotide analogue (A488dC4P or A568dC4P) at 10 μM concentration. After a short preincubation, the reaction was started with MnCl2. The reaction was stopped with EDTA, and the products were separated using agarose gel electrophoresis and stained with SYBR Gold (Invitrogen). The average length of the DNA generated with DNA polymerase was determined and used to estimate the polymerization rate. See, e.g., Table 2 Columns G and H.
The Φ29 DNA polymerase (parental enzyme or mutant) was preincubated with DNA template (circular DNA including mostly repetitive sequence CAT, no G residues) with annealed DNA primer; the preincubation mix includes three native nucleotides (dTTP, dATP and dGTP). All subsequent steps were basically as described above in the section entitled “Assay with a single analogue at low concentration (10 μM) and three native nucleotides.” See, e.g., Table 2 Column B.

A633dC4P = test: Screening: rate with A633dC4P and dA, dG, dTTP; details: for Rate High: 25 μM A633dC4P with 20 μM dA; for Ratio (Low/High): (rate at 5 μM A633dC4P)/(rate at 25 μM A633dC4P), each with 20 μM dA, 1 mM MnCl2, higher ratio = lower Km
A568dC4P [3] = test: Assay with a single analogue at low concentration (10 μM) and three native nucleotides, A568dC4P; details: single analogue at 10 μM and three native nucleotides
Method: as §4

A488dC4P [4] = test: Assay with a single analogue at low concentration (10 μM) and three native nucleotides, A488dC4P; details: single analogue at 10 μM and three native nucleotides
Method: as §4

Alexa555-C2-dT4P = test: Km and Vmax versus analogue Alexa555-C2-dT4P
Method: as §3

[5] = system: A488dA4P, A633dC4P, A546dG4P, A594dT4P; test: Assay with four terminally labeled nucleotide analogs; details: four terminally labeled analogs all at 10 μM
Method: Polymerization rate (bases/min) with four analogues at 10 μM (A488dA4P, A633dC4P, A546dG4P and A594dT4P) and circular template (AGTC, a 72mer circular template largely consisting of a repeating AGTC motif) is determined.
The procedure is basically as described above in the section entitled “Assay with a single analogue at low concentration (10 μM) and three native nucleotides,” with the exception that in this assay all nucleotides are terminally labeled (A488dA4P, A633dC4P, A546dG4P, A594dT4P all at 10 μM). See, e.g., Table 2 Column I.

A488dC4P [6] = test: Nucleotide analogue concentration dependence of the polymerization rate, A488dC4P; details: for A488dC4P, kel / Km: circular AGTC template, dTTP, dATP, dGTP 20 μM each; for Km as % of the Km of N62D Φ29 for A488dC4P: relative to N62D Φ29, from Table 2
Method: as §1, §2

[7] = system: natural (native) nucleotides; test: Initial characterization: specific activity with natural (native) nucleotides
Method: The recombinant polymerase is initially evaluated on the quality of the protein preparation and basic catalytic activity. The polymerase's activity is analyzed with natural (native) nucleotides, and its specific activity (units/mg) is determined. Only catalytically competent mutants are selected for the next steps.

[8] = system: Alexa488-O-dA4P, FAM-Alexa532-O-dG4P, FAM-Alexa594-O-dT4P, Alexa633-O-dC4P; test: Screening: rate with set of four nucleotide analogues; details: four analogues at 10 μM each, 1 mM MnCl2
Alexa532-O-dG4P = test: Km and Vmax versus analogue Alexa532-O-dG4P
Method: as §3

Alexa568-dA4P = test: FRET stopped flow assay, branching rate; details: dideoxy-terminated primer, native dATP trap
Method: Relative branching rate (dissociation of the analogue without incorporation, i.e., substrate dissociation) was also determined for exemplary recombinant Phi29 polymerases with nucleotide analogue Alexa568-dA4P (also called A568-dA4P), using a FRET stopped flow assay as schematically illustrated in FIG. 8A. In this technique, a template with a FRET donor dye compatible for FRET with the corresponding dye on the nucleotide analogue is employed. The primer has a dideoxy-termination at the 3′ end to prevent incorporation. The analogue is pre-mixed with the enzyme-template-dideoxy primer complex. In the stopped flow apparatus, this preformed complex is rapidly mixed with the corresponding native nucleotide (native dATP, in this example) in excess which serves as a “trap” to prevent rebinding of the analogue after it dissociates. The increase in donor dye fluorescence is monitored as a means of monitoring the dissociation/branching rate of the analogue.

A594-dT4P = test: FRET stopped flow assay, rates of binding and product release; details: nucleotide analogue A594-dT4P
Method: Rates of binding and product release were determined for exemplary recombinant Phi29 polymerases with nucleotide analogue A594-dT4P using a FRET stopped flow assay as schematically illustrated in FIG. 7A. Results are depicted graphically in FIGS. 7B-D for Phi29 N62D (FIG. 7B), N62D:E375Y (FIG. 7C), and N62D:E375W (FIG. 7D).

| Product Release Rate (A594-dT4P) [s⁻¹] | Substance | A568dC4P, kel (A568dC4P [1]) | Km (A568dC4P [1]) [µM] | Km as % of the Km of N62D Φ29 for A568dC4P (A568dC4P [1]) | Km (Alexa633-O-dC4P) [µM] | Processivity [2] [kb^−1] | dTTP, dATP, dGTP (no G fork) V at 20 μM (dTTP, dATP, dGTP) | Rate High (A633dC4P) | Ratio (Low/High) (A633dC4P) | A568dC4P, V at 10 μM (A568dC4P [3]) | A488dC4P, V at 10 μM (A488dC4P [4]) | Km (Alexa555-C2-dT4P) [µM] | A488dA4P, A633dC4P, A546dG4P, A594dT4P, V at 10 μM [5] | A488dC4P, kel (A488dC4P [6]) [bp/min] | Km (A488dC4P [6]) [µM] | Km as % of the Km of N62D Φ29 for A488dC4P (A488dC4P [6]) | Specific Activity [7] | Hz Rate [8] [Hz] | Km (Alexa532-O-dG4P) [µM] | Branching Rate (Alexa568-dA4P) [s⁻¹] | other results |
| --- | --- | --- | --- | --- | --- | --- | --- | --- | --- | --- | --- | --- | --- | --- | --- | --- | --- | --- | --- | --- | --- |
| 76 | N62D: E375W: Phi29 polymerase with E375W and N62D mutations | – | – | – | 1.8 | – | – | 699.4 | 0.677 | – | – | 5 | – | – | – | – | – | 19.1 | 16 | 43 | rates of binding and product release compared with the parent enzyme (A594-dT4P): increased rates of binding and product release |
| 117 | N62D: E375Y: Phi29 polymerase with E375Y and N62D mutations | – | – | – | 2.5 | – | – | 498.5 | 0.694 | – | – | 6.6 | – | – | – | – | – | 12.1 | 18 | 31 | rates of binding and product release compared with the parent enzyme (A594-dT4P): increased rates of binding and product release |
| 55 | N62D: N62D Phi29 DNA polymerase, parent enzyme in Tables 4, 6 and 7; tag not stated [reference compound] | – | – | – | 23 | – | – | – | – | – | – | 20 | – | – | – | – | – | – | 68 | 90 | – |

Further lines, the substance ahead of its results:

| Substance | Product Release Rate (A594-dT4P) [s⁻¹] | A568dC4P, kel (A568dC4P [1]) | Km (A568dC4P [1]) [µM] | Km as % of the Km of N62D Φ29 for A568dC4P (A568dC4P [1]) | Km (Alexa633-O-dC4P) [µM] | Processivity [2] [kb^−1] | dTTP, dATP, dGTP (no G fork) V at 20 μM (dTTP, dATP, dGTP) | Rate High (A633dC4P) | Ratio (Low/High) (A633dC4P) | A568dC4P, V at 10 μM (A568dC4P [3]) | A488dC4P, V at 10 μM (A488dC4P [4]) | Km (Alexa555-C2-dT4P) [µM] | A488dA4P, A633dC4P, A546dG4P, A594dT4P, V at 10 μM [5] | A488dC4P, kel (A488dC4P [6]) [bp/min] | Km (A488dC4P [6]) [µM] | Km as % of the Km of N62D Φ29 for A488dC4P (A488dC4P [6]) | Specific Activity [7] | Hz Rate [8] [Hz] | Km (Alexa532-O-dG4P) [µM] | Branching Rate (Alexa568-dA4P) [s⁻¹] | other results |
| --- | --- | --- | --- | --- | --- | --- | --- | --- | --- | --- | --- | --- | --- | --- | --- | --- | --- | --- | --- | --- | --- |
| His-E375H-N62D: Phi 29 polymerase with E375H and N62D mutations (SEQ ID NOs:4, 25) | – | 930 | 11 | about 15% | 17 | 0.9510 | 780 | 510.1 | 0.445 | 366 | 411 | 15 | 123 | 950 | 8 | about 40% | 10,945,000 units/mg | 9.4 | – | – | – |
| His-E375S-N62D: Phi 29 polymerase with E375S and N62D mutations (SEQ ID NOs:5, 26) | – | 1300 | 28 | about 38% | 16.5 | 0.9815 | 940 | 528.4 | 0.335 | 332 | 420 | – | 74 | 1190 | 15 | about 75% | 10,961,000 units/mg | 5.9 | 40 | – | – |
